Where a name gives a salt, the structure may show the parent alone.
Key:
Test in all cases: IC50 (viability, PrestoBlue) (log10 nM)
Settings in all cases: exposure time: 72 h
[1] = system: murine gastric organoid RAS-activated (Kras G12D; Tp53 R172H)
Experimental: (§1)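 Murine gastric corpus organoids (normal uninduced; RAS-activated Kras G12D/Tp53 R172H; diffuse Cdh1/Apc loss; WNT-activated Apc loss/Tp53 R172H) were seeded in Matrigel into pre-spotted 384-well plates. The plates held a 196-compound library at 6.7 nM to 25,004 nM (9 doses) and were incubated 72 h. Viability was read by PrestoBlue fluorescence (560/590 nm). IC50 came from non-linear regression (Prism), reported as log10 IC50 in nM, mean of 3 passages x 2 wells.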

[2] = system: murine gastric organoid WNT-activated (Apc fl/fl; Tp53 R172H)
Experimental: as §1

[3] = system: murine gastric organoid diffuse (Cdh1 fl/fl; Apc fl/fl)
Experimental: as §1

[4] = system: murine normal gastric organoid
Experimental: as §1

| Structure (SMILES) | IC50 (log10 nM) [1] | IC50 (log10 nM) [2] | IC50 (log10 nM) [3] | IC50 (log10 nM) [4] |
| --- | --- | --- | --- | --- |
| CNC(=O)[C@@H](NC(=O)[C@H](CC(C)C)[C@H](O)C(=O)NO)C(C)(C)C [Marimastat] | < 0.826 | 4.02 | > 4.4 | 4.37 |
| Cc1ccc(NC(=O)c2ccc(CN3CCN(C)CC3)cc2)cc1Nc1nc(-c2cccnc2)cs1 [Masitinib mesylate] | 2.38 | 3.35 | 4.25 | 3.68 |
| N[C@@H](Cc1ccc(N(CCCl)CCCl)cc1)C(=O)O [Melphalan] | 3.27 | 2.26 | 3.34 | 3.09 |
| CN(Cc1cnc2nc(N)nc(N)c2n1)c1ccc(C(=O)N[C@@H](CCC(=O)O)C(=O)O)cc1 [Methotrexate] | 3.43 | 4.36 | > 4.4 | 3.41 |
| CO[C@@]12[C@H](COC(N)=O)C3=C(C(=O)C(C)=C(N)C3=O)N1C[C@@H]1N[C@@H]12 [Mitomycin C] | 2.5 | 2.7 | 2.68 | 2.64 |
| O=C1c2c(O)ccc(O)c2C(=O)c2c(NCCNCCO)ccc(NCCNCCO)c21 [Mitoxantrone dihydrochloride] | 2.2 | 3.38 | 2.41 | 2.13 |
| CCOc1cc2ncc(C#N)c(Nc3ccc(OCc4ccccn4)c(Cl)c3)c2cc1NC(=O)/C=C/CN(C)C [Neratinib] | > 4.4 | 2.94 | 3.13 | 2.48 |
| Cc1sc2c(c1C)C(c1ccc(Cl)cc1)=N[C@@H](CC(=O)Nc1ccc(O)cc1)c1nnc(C)n1-2 [OTX-015] | 3.11 | 2.85 | 2.47 | 2.22 |
| COC1=CC(c2cc3ccccc3[nH]2)=N/C1=C\c1[nH]c(C)cc1C [Obatoclax] | 2.81 | 2.26 | 3.06 | 2.31 |
| C=CC(=O)Nc1cc(Nc2nccc(-c3cn(C)c4ccccc34)n2)c(OC)cc1N(C)CCN(C)C [Osimertinib] | 3.89 | 2.46 | 3.05 | 2.73 |
| C1=N/C2=N/c3ccc(OCCN4CCCC4)c(c3)COC/C=C/COCc3cccc(c3)C(=C1)N2 [Pacritinib] | 3.76 | 2.91 | 3.48 | 3.23 |
| CC(=O)c1c(C)c2cnc(Nc3ccc(N4CCNCC4)cn3)nc2n(C2CCCC2)c1=O [Palbociclib] | 4.07 | 4.13 | 4.37 | 4.24 |
| Cc1[nH]c2ccccc2c1CCNCc1ccc(/C=C/C(=O)NO)cc1 [Panobinostat] | 1.81 | 3.02 | 2.82 | 3.17 |
| Cc1ccc(Nc2nccc(N(C)c3ccc4c(C)n(C)nc4c3)n2)cc1S(N)(=O)=O [Pazopanib] | > 4.4 | > 4.4 | 1.42 | 4.21 |
| CCCCCCCCCCCCCCCCCCOP(=O)([O-])OC1CC[N+](C)(C)CC1 [Perifosine] | < 0.826 | 1.16 | > 4.4 | < 0.826 |
| Cc1ccc(C(=O)Nc2ccc(CN3CCN(C)CC3)c(C(F)(F)F)c2)cc1C#Cc1cnc2cccnn12 [Ponatinib] | 3.27 | 1.71 | 3.08 | 3.04 |
| CC(C)(C)c1cc(NC(=O)Nc2ccc(-c3cn4c(n3)sc3cc(OCCN5CCOCC5)ccc34)cc2)no1 [Quizartinib] | < 0.826 | 2.01 | 3.09 | 3.06 |
| COc1cc(Nc2ncc(F)c(Nc3ccc4c(n3)N(COP(=O)(O)O)C(=O)C(C)(C)O4)n2)cc(OC)c1OC [R788 disodium hexahydrate] | 3.21 | 2.5 | 2.99 | 3.46 |
| Cn1nccc1Nc1nccc(-c2ccn([C@H](CO)c3ccc(Cl)c(F)c3)c(=O)c2)n1 [Ravoxertinib] | 3.74 | 3.44 | > 4.4 | 3.18 |
| CNC(=O)c1cc(Oc2ccc(NC(=O)Nc3ccc(Cl)c(C(F)(F)F)c3)c(F)c2)ccn1 [Regorafenib] | 4.14 | 3.86 | 3.97 | 3.94 |
| CC1=C(/C=C/C(C)=C/C=C/C(C)=C/C(=O)O)C(C)(C)CCC1 [Retinoic acid] | 0.928 | 3.82 | > 4.4 | > 4.4 |

| Structure (SMILES) | IC50 (log10 nM) [1] | IC50 (log10 nM) [2] | IC50 (log10 nM) [3] | IC50 (log10 nM) [4] |
| --- | --- | --- | --- | --- |
| COc1cc(OC)c(/C=C/S(=O)(=O)Cc2ccc(OC)c(NCC(=O)O)c2)c(OC)c1 [Rigosertib sodium] | 1.35 | 2.01 | 1.55 | 1.86 |
| C/C=C1\NC(=O)[C@H]2CSSCC/C=C/[C@H](CC(=O)N[C@H](C(C)C)C(=O)N2)OC(=O)[C@H](C(C)C)NC1=O [Romidepsin] | < 0.826 | 0.997 | 0.852 | < 0.826 |
| Cc1nc(C(=O)NCC(=O)O)c(O)c2ccc(Oc3ccccc3)cc12 [Roxadustat (FG-4592)] | < 0.826 | 1.23 | 3.27 | 2.38 |
| O=C(Nc1cccc(Cl)c1)Nc1ncc(CCNc2ncnc3ccsc23)s1 [SNS-314] | 2.47 | 2.87 | 4.02 | 3.2 |
| Cc1cc(C)c(/C=C2\C(=O)Nc3ccccc32)[nH]1 [SU 5416] | 4.36 | 3.77 | 4.33 | 4.03 |
| Cn1cnc2c(F)c(Nc3ccc(Br)cc3Cl)c(C(=O)NOCCO)cc21 [Selumetinib] | 2.61 | 3.32 | 3.15 | 2.47 |
| CC(C)[C@H](O)C(=O)N[C@@H](C)C(=O)N[C@@H]1C(=O)N(C)CCc2ccccc21 [Semagacestat] | > 4.4 | 2.37 | > 4.4 | 4.35 |
| CNC(=O)c1cc(Oc2ccc(NC(=O)Nc3ccc(Cl)c(C(F)(F)F)c3)cc2)ccn1 [Sorafenib] | 3.98 | 3.9 | 3.88 | 3.78 |
| CN(N=O)C(=O)N[C@@H](C=O)[C@@H](O)[C@H](O)[C@H](O)CO [Streptozocin] | > 4.4 | 4.07 | > 4.4 | 4.39 |
| CCN(CC)CCNC(=O)c1c(C)[nH]c(/C=C2\C(=O)Nc3ccc(F)cc32)c1C [Sunitinib] | 3.93 | 3.94 | 3.92 | 3.8 |
| CC(=O)Nc1ccc(C(=O)Nc2ccccc2N)cc1 [Tacedinaline] | 3.87 | 4.35 | 3.97 | 4.34 |
| COc1cc2c(cc1OC)CN(CCc1ccc(NC(=O)c3cc(OC)c(OC)cc3NC(=O)c3cnc4ccccc4c3)cc1)CC2 [Tariquidar] | 3.73 | 3.76 | 3.95 | 4.26 |
| Cn1nnc2c(C(N)=O)ncn2c1=O [Temozolomide] | > 4.4 | 4.02 | > 4.4 | 4.37 |
| COc1cc([C@@H]2c3cc4c(cc3[C@@H](O[C@@H]3O[C@@H]5CO[C@@H](c6cccs6)O[C@H]5[C@H](O)[C@H]3O)[C@H]3COC(=O)[C@H]23)OCO4)cc(OC)c1O [Teniposide] | 1.83 | 2.84 | 2.35 | 1.79 |
| S=P(N1CC1)(N1CC1)N1CC1 [Thio-TEPA] | 4.17 | 4.16 | > 4.4 | 4.21 |
| CSc1ccc2c(c1)N(CCC1CCCCN1C)c1ccccc1S2 (centres undefined) [Thioridazine hydrochloride] | 4 | 3.52 | 4.13 | 3.9 |
| Cn1cncc1[C@@](N)(c1ccc(Cl)cc1)c1ccc2c(c1)c(-c1cccc(Cl)c1)cc(=O)n2C [Tipifarnib] | < 0.826 | 3.16 | 3.73 | 2.96 |
| O=C1NC(=O)[C@@H](c2cn3c4c(cccc24)CCC3)[C@@H]1c1c[nH]c2ccccc12 [Tivantinib] | 2.4 | 2.79 | 3.1 | 2.87 |
| COc1cc2nccc(Oc3ccc(NC(=O)Nc4cc(C)on4)c(Cl)c3)c2cc1OC [Tivozanib] | 3.6 | 3.74 | > 4.4 | 2.5 |
| CC[C@@]1(O)C(=O)OCc2c1cc1n(c2=O)Cc2cc3c(CN(C)C)c(O)ccc3nc2-1 [Topotecan hydrochloride] | 1.68 | 2.36 | 2.4 | 1.48 |
